The record followed here is patent publication US11871713B2, “Rice cultivar designated ‘PVL02’” (Board of Supervisors of Louisiana State University and …, priority 2019, dated 2024).

In this series the test system is ‘PVL02’ rice. As to the kind of experiment: Herbicide tolerance of rice cultivar 'PVL02'. The format is in vivo, Oryza sativa. To be noted: rice variety ‘PVL02’ carrying plastidic ACCase I1781(Am)L; rate not given. The source says:
‘PVL02’ is an early maturing, long-grain rice variety that is tolerant to ACCase herbicides. For example, ‘PVL02’ is tolerant to Quizalofop-P-ethyl, the generic name for ethyl (R)-2-[4-(6-chloroquinoxalin-2-yl) oxy)phenoxy]propionate, which is sold under the tradename Provisia™ herbicide. PVL02 has excellent milling potential, very low chalk, and a grain length-width ratio of 2.8. ‘PVL02’ was developed using a pedigree selection system at the Louisiana State University Agricultural Center's H. Rouse Caffey Rice Research Station (HRCRRS) in Crowley, Louisiana ‘PVL02’ was selected from the cross Cheniere/BASF 1-5, a cross that was made at the HRCRRS in 2012. ‘Cheniere’ is a commercially-available cultivar. An earlier experimental designation for the ‘PVL02’ line was PVL-108.
The ‘PVL02’ line was developed from the bulk of a single F3 line (14P2980) made at the Puerto Rico winter rice nursery in 2014. ‘PVL02’ was evaluated in a Provisia preliminary yield trial at the HRCRRS in 2014 and 2015, under the experimental designation 14PVL108, before being entered into the Louisiana statewide commercial/advanced yield testing program in 2016-2018.

SMILES strings stand for the structures.

For `CCOC(=O)[C@@H](C)Oc1ccc(Oc2cnc3cc(Cl)ccc3n2)cc1` [Quizalofop-P-ethyl], the “tolerance of the rice variety to the herbicide” value was “tolerant”.
